Source: ChEMBL document CHEMBL3882387, “Combination of selected analgesics and COX-II inhibitors” (2005)

Columns and labels:
Type in all cases: functional
Rattus norvegicus [1] = assay: (§1) Analgesic activity in rat assessed as reduction in baking yeast suspension-induced hind paw oedema by measuring combination effect at 46.4 mg/kg, po co-administered with 215 mg/kg COX2 inhibitor celecoxib (celebrex) 1 hr prior to compound addition by Randall-selitto test relative to control; design: scale not given: the % may be the effect or the level left
Rattus norvegicus [2] = assay: as §1, with “68.1” for “46.4”, “coadministered” for “co-administered”, “addition measured after 15 to 75 mins” for “addition”; design: scale not given: the % may be the effect or the level left
Rattus norvegicus [3] = assay: as §1, with “68.1” for “46.4”, “coadministered” for “co-administered”, “addition measured after 75 to 90 mins” for “addition”; design: scale not given: the % may be the effect or the level left
Rattus norvegicus [4] = assay: Analgesic activity in rat assessed as reduction in baking yeast suspension-induced hind paw oedema by measuring combination effect at 21.5 mg/kg, po co-administered with 215 mg/kg COX2 inhibitor celecoxib (celebrex) 1 hr prior to compound addition by Randall-selitto test relative to control; design: scale not given: the % may be the effect or the level left
Rattus norvegicus [5] = assay: Analgesic activity in rat assessed as reduction in baking yeast suspension-induced hind paw oedema at 31 mg/kg, po by measuring combination effect co-administered with 215 mg/kg COX2 inhibitor rofecoxib (vioxx) by Randall-selitto test relative to control; design: scale not given: the % may be the effect or the level left
Rattus norvegicus [6] = assay: Analgesic activity in rat assessed as reduction in baking yeast suspension-induced hind paw oedema by measuring combination effect at 31 mg/kg, po co-administered with 215 mg/kg COX2 inhibitor celecoxib (celebrex) by Randall-selitto test relative to control; design: scale not given: the % may be the effect or the level left
Rattus norvegicus [7] = assay: Analgesic activity in rat assessed as reduction in baking yeast suspension-induced hind paw oedema by measuring combination effect at 31 mg/kg, po coadministered with 215 mg/kg COX2 inhibitor rofecoxib (vioxx) 1 hr prior to compound addition by Randall-selitto test relative to control; design: scale not given: the % may be the effect or the level left
Rattus norvegicus [8] = assay: Analgesic activity in rat assessed as reduction in baking yeast suspension-induced hind paw oedema by measuring combination effect at 46 mg/kg, po coadministered with 215 mg/kg COX2 inhibitor rofecoxib (vioxx) 1 hr prior to compound addition by Randall-selitto test relative to control; design: scale not given: the % may be the effect or the level left
Rattus norvegicus [9] = assay: Analgesic activity in rat assessed as reduction in baking yeast suspension-induced hind paw oedema by measuring combination effect at 46 mg/kg, po co-administered with 215 mg/kg COX2 inhibitor celecoxib (celebrex) by Randall-selitto test relative to control; design: scale not given: the % may be the effect or the level left
Rattus norvegicus [10] = assay: Analgesic activity in rat assessed as reduction in baking yeast suspension-induced hind paw oedema at 31 mg/kg, po by measuring combination effect co-administered with 215 mg/kg COX2 inhibitor celecoxib by Randall-selitto test relative to control; design: scale not given: the % may be the effect or the level left
Rattus norvegicus [11] = assay: Analgesic activity in po dosed formalin-induced chronic pain rat model assessed as reduction in behavioural change by measuring combination ED50 co-administered with COX2 inhibitor celecoxib measured up to 60 mins by formalin test; details: 1 h
Rattus norvegicus [12] = assay: Analgesic activity in po dosed rat assessed as reduction in acetic acid-induced writhings by measuring combination ED50 co-administered with COX2 inhibitor rofecoxib pretreated for 30 mins followed by acetic acid challenge measured after 10 to 35 mins by writhing test
Rattus norvegicus [13] = assay: Analgesic activity in rat assessed as reduction in baking yeast suspension-induced hind paw oedema at 215 mg/kg, po pretreated for 1 hr followed by 46 mg/kg (1R,2R)-3-(3-dimethylamino-l-ethyl-2-methyl-propyl)-phenol; hydrochloride addition by Randall-selitto test relative to control; design: scale not given: the % may be the effect or the level left
Rattus norvegicus [14] = assay: Analgesic activity in rat assessed as reduction in baking yeast suspension-induced hind paw oedema at 215 mg/kg, po pretreated for 1 hr followed by 31 mg/kg (1R,2R)-3-(3-dimethylamino-l-ethyl-2-methyl-propyl)-phenol; hydrochloride addition by Randall-selitto test relative to control; design: scale not given: the % may be the effect or the level left
Rattus norvegicus [15] = assay: (§2) Analgesic activity in rat assessed as reduction in baking yeast suspension-induced hind paw oedema at 215 mg/kg, po pretreated for 1 hr followed by 68.1 mg/kg (1RS,3RS,6RS)-6-dimethylaminomethyl-1-(3-[methoxy-phenyl)-cyclohexane-1,3-diol;hydrochloride addition measured after 15 to 75 mins by Randall-selitto test relative to control; design: scale not given: the % may be the effect or the level left
Rattus norvegicus [16] = assay: Analgesic activity in rat assessed as reduction in baking yeast suspension-induced hind paw oedema at 215 mg/kg, po pretreated for 1 hr followed by 21.5 mg/kg (1S,2S)-3-(3-dimethylamino-l-ethyl-2-methyl-propyl)-phenol;hydrochloride addition by Randall-selitto test relative to control; design: scale not given: the % may be the effect or the level left
Rattus norvegicus [17] = assay: Analgesic activity in rat assessed as reduction in baking yeast suspension-induced hind paw oedema at 215 mg/kg, po pretreated for 1 hr followed by 46.4 mg/kg ((1R,2R)-3-(2-dimethylaminomethyl-cyclohexyl)-phenol;1 hydrochloride addition by Randall-selitto test relative to control; design: scale not given: the % may be the effect or the level left
Rattus norvegicus [18] = assay: as §2, with “after 75” for “after 15”, “to 90” for “to 75”; design: scale not given: the % may be the effect or the level left
Rattus norvegicus [19] = assay: Analgesic activity in rat assessed as reduction in baking yeast suspension-induced hind paw oedema at 215 mg/kg, po co-administered with 31 mg/kg (1R,2R)-3-(3-dimethylamino-l-ethyl-2-methyl-propyl)-phenol; hydrochloride by Randall-selitto test relative to control; design: scale not given: the % may be the effect or the level left

## CN(C)C[C@@H]1CCCC[C@H]1c1cccc(O)c1.Cl
Rattus norvegicus [1]
  Activity: 84.1%

## COc1cccc([C@@]2(O)C[C@H](O)CC[C@@H]2CN(C)C)c1.Cl (racemic)
Rattus norvegicus [2]
  Activity: 109.3%
Rattus norvegicus [3]
  Activity: 68.5%

## CC[C@H](c1cccc(O)c1)[C@H](C)CN(C)C.Cl
Rattus norvegicus [4]
  Activity: 96.4%

## CC[C@@H](c1cccc(O)c1)[C@@H](C)CN(C)C.Cl [TAPENTADOL HYDROCHLORIDE]
Rattus norvegicus [5]
  Activity: 29.7%
Rattus norvegicus [6]
  Activity: 60.9%
Rattus norvegicus [7]
  Activity: 45.7%
Rattus norvegicus [8]
  Activity: 59.8%
Rattus norvegicus [9]
  Activity: 86.1%
Rattus norvegicus [10]
  Activity: 29.6%
Rattus norvegicus [11]
  ED50: 60.6 mg/kg
Rattus norvegicus [12]
  ED50: 23.3 mg/kg

## Cc1ccc(-c2cc(C(F)(F)F)nn2-c2ccc(S(N)(=O)=O)cc2)cc1 [CELECOXIB]
Rattus norvegicus [13]
  Activity: 17.3%
Rattus norvegicus [14]
  Activity: 17.3%
Rattus norvegicus [15]
  Activity: 16.7%
Rattus norvegicus [16]
  Activity: 8.9%
Rattus norvegicus [17]
  Activity: 8.9%
Rattus norvegicus [18]
  Activity: 8%

## CS(=O)(=O)c1ccc(C2=C(c3ccccc3)C(=O)OC2)cc1 [ROFECOXIB]
Rattus norvegicus [13]
  Activity: 13%
Rattus norvegicus [14]
  Activity: 13%
Rattus norvegicus [19]
  Activity: 11.2%
